Several values for one entry are separate records, joined by “and”; a condition that tells them apart may be missing. Equal values may be shown once.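 Tested at 5 concentrations; 48 h exposure; 96-well plates; endpoints linearly interpolated, else capped at highest concentration. GI50 = concentration required for 50% inhibition of growth. At the TGI there is no net growth.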

The source of these data is PubChem BioAssay (NCI).

Some test systems named below: SF-268 CNS; HL-60(TB) leukemia; KM12 colon; MALME-3M melanoma; HOP-92 NSCLC; UO-31 renal; SK-OV-3 ovarian; A549 NSCLC; NCI-H460 lung; UACC-257 melanoma.
Holding throughout (experiment): inhibition of tumour cell growth, NCI panel, 48 h

Consider `CC(=O)N[C@H](C(=O)N[C@@H](CCCNC(=N)N)C(=O)N[C@@H](CCCCN)C(=O)N[C@@H](CCCNC(=N)N)C(=O)N[C@]1(C)CCCCCC/C=C\CCC[C@@](C)(C(=O)N[C@@H](CCCNC(=N)N)C(=O)N[C@@H](CCC(=O)O)C(=O)N[C@@H](CC(C)C)C(=O)N[C@H](C(=O)N[C@@H](CCC(=O)O)C(N)=O)C(C)C)NC(=O)[C@H](CCC(N)=O)NC(=O)[C@H](CC(C)C)NC(=O)[C@H](CC(C)C)NC(=O)[C@H](CCCNC(=N)N)NC(=O)[C@H](CCCNC(=N)N)NC(=O)[C@H](CC(C)C)NC1=O)C(C)C`, for which the GI50 is 1.47 µM with SF-268 CNS; 5.19 µM with HL-60(TB) leukemia; 1.3 µM in the experiment with KM12 colon; 1.19 µM in the experiment with MALME-3M melanoma; 1.73 µM in the experiment on HOP-92 NSCLC; 11.1 µM with UO-31 renal. Besides, the GI50 in the experiment with SK-OV-3 ovarian was 3.72 µM; in the experiment on A549 NSCLC it was 3.4 µM. The TGI in the experiment on SF-268 CNS worked out at 4.58 µM; in the experiment with HL-60(TB) leukemia, 18.5 µM; in the experiment on KM12 colon, 3.77 µM; with MALME-3M melanoma, 2.72 µM; in the experiment with HOP-92 NSCLC it was 8.43 µM; with UO-31 renal, 47.1 µM. Further, the TGI in the experiment with SK-OV-3 ovarian came to 27.7 µM; with A549 NSCLC it was 27.6 µM.
With `CC1(c2ccccc2)CC(c2ccccc2)=NO1` (centres undefined), the TGI with SF-268 CNS, with NCI-H460 lung, in the experiment with UACC-257 melanoma, with HL-60(TB) leukemia, in the experiment on KM12 colon and with MALME-3M melanoma was over 100 µM each time. Also, the TGI in the experiment with HOP-92 NSCLC, in the experiment with UO-31 renal, with SK-OV-3 ovarian and in the experiment with A549 NSCLC was over 100 µM in each case.
With `Cc1cc(Nc2nc(SCc3ccc(C(=O)Nc4ccc(F)cc4N)cc3)nn3cccc23)n[nH]1`, the GI50 in the experiment with SF-268 CNS was 1.12 µM; in the experiment with NCI-H460 lung it was 0.395 µM; in the experiment with UACC-257 melanoma, 3.69 µM; in the experiment on HL-60(TB) leukemia, 0.268 µM; with KM12 colon it was 0.284 µM; in the experiment with MALME-3M melanoma, 1.83 µM. Also, the GI50 in the experiment on HOP-92 NSCLC was 3.68 µM; with UO-31 renal, 1.33 µM; in the experiment with SK-OV-3 ovarian, 0.339 µM; with A549 NSCLC, 0.886 µM. For the same compound, the TGI in the experiment with SF-268 CNS is over 100 µM; in the experiment on NCI-H460 lung it was over 100 µM; in the experiment with UACC-257 melanoma, 32.4 µM; in the experiment on HL-60(TB) leukemia, 0.785 µM; in the experiment on KM12 colon it was 10.3 µM; with MALME-3M melanoma, 25.7 µM. The TGI in the experiment on HOP-92 NSCLC came to 24.3 µM; in the experiment on UO-31 renal, 11 µM; in the experiment on SK-OV-3 ovarian it was 4.61 µM; in the experiment on A549 NSCLC, 36.8 µM.
Regarding `COc1ccccc1-c1cc(=O)c2ccc(C)nc2[nH]1`, the TGI with SF-268 CNS, in the experiment with NCI-H460 lung, in the experiment with UACC-257 melanoma, with HL-60(TB) leukemia, with KM12 colon and in the experiment on MALME-3M melanoma was over 100 µM throughout. Further, the TGI in the experiment with HOP-92 NSCLC, with UO-31 renal, in the experiment with SK-OV-3 ovarian and with A549 NSCLC was over 100 µM in each case. The GI50 in the experiment on NCI-H460 lung was 98.7 µM; with HL-60(TB) leukemia it was 73.8 µM.
Take `Cl[Si]1(Cl)Oc2ccccc2O[Si](Cl)(Cl)Oc2ccccc2O1`: the TGI was over 100 µM in the experiment with SF-268 CNS; 65.9 µM in the experiment on NCI-H460 lung; 4.63 µM in the experiment on HL-60(TB) leukemia; over 100 µM in the experiment with KM12 colon; over 100 µM in the experiment with MALME-3M melanoma; 89.6 µM in the experiment with HOP-92 NSCLC. In addition, the TGI in the experiment with SK-OV-3 ovarian and with A549 NSCLC was over 100 µM each time.
`OC(c1ccc(Br)cc1)(c1cccs1)C1CC1` (centres undefined): the TGI with SF-268 CNS was 45.4 µM; in the experiment on NCI-H460 lung, 57.8 µM; with UACC-257 melanoma, 71.3 µM; in the experiment with HL-60(TB) leukemia it was 52.7 µM; in the experiment on KM12 colon it was 35.3 µM; in the experiment with MALME-3M melanoma, 41.5 µM. Moreover, the TGI is 37.7 µM in the experiment on HOP-92 NSCLC, 48.1 µM in the experiment with UO-31 renal, over 100 µM in the experiment with SK-OV-3 ovarian and over 100 µM in the experiment on A549 NSCLC.
For `COc1ccc(-c2nnc(N3CCN(C(=O)CN4CCN(c5ccc(OC)cc5)CC4)CC3)nc2-c2ccc(OC)cc2)cc1`, the GI50 in the experiment on SF-268 CNS was 3.62 µM; in the experiment with NCI-H460 lung, 15.4 µM; in the experiment on UACC-257 melanoma it was 17.5 µM; in the experiment with HL-60(TB) leukemia, 1.88 µM; in the experiment with KM12 colon, 2.93 µM; with MALME-3M melanoma, 3.17 µM. In addition, the GI50 in the experiment with HOP-92 NSCLC is 16.1 µM; in the experiment on UO-31 renal, 12.5 µM; in the experiment with SK-OV-3 ovarian, 20.8 µM; in the experiment on A549 NSCLC it was 25.6 µM. The TGI with SF-268 CNS was 14.2 µM; with NCI-H460 lung it was over 62.3 µM; in the experiment on UACC-257 melanoma, 39.5 µM; in the experiment with HL-60(TB) leukemia it was 6.5 µM; in the experiment with KM12 colon, 8.4 µM; in the experiment with MALME-3M melanoma, 23.1 µM. Besides, the TGI in the experiment with HOP-92 NSCLC is 35.2 µM; in the experiment on UO-31 renal, 39.7 µM; with SK-OV-3 ovarian, 45 µM; in the experiment on A549 NSCLC it was over 100 µM.
Take `C[n+]1c2ccccc2cc2c(CNC(CCCN=C(N)N)C(=O)O)cccc21` (centres undefined): the GI50 was 0.394 µM with SF-268 CNS; 3.42 µM in the experiment on NCI-H460 lung; 1.98 µM with UACC-257 melanoma; 0.187 µM in the experiment with HL-60(TB) leukemia; 3.48 µM with MALME-3M melanoma; 0.327 µM with HOP-92 NSCLC. Moreover, the GI50 was 10.2 µM with UO-31 renal, 6.15 µM in the experiment with SK-OV-3 ovarian and 4.11 µM with A549 NSCLC. Further, the TGI was 0.846 µM and 1.47 µM in the experiment with SF-268 CNS; 5 µM and 13.9 µM with NCI-H460 lung; 3.9 µM in the experiment with UACC-257 melanoma; 0.488 µM and 0.882 µM with HL-60(TB) leukemia; 1.72 µM and 1.57 µM with KM12 colon; 4.54 µM and 10.7 µM in the experiment on MALME-3M melanoma. Further, the TGI in the experiment on HOP-92 NSCLC is 0.991 µM; in the experiment with UO-31 renal, 2.43 µM and 22 µM; with SK-OV-3 ovarian it was 17.9 µM; with A549 NSCLC, 14.6 µM.
For the compound `COc1ccccc1/C=C/C(=O)/C=C/c1ccccc1O`, the GI50 in the experiment with SF-268 CNS is 1.34 µM; in the experiment on NCI-H460 lung, 1.67 µM; in the experiment with UACC-257 melanoma it was 1.71 µM; in the experiment with HL-60(TB) leukemia it was 0.323 µM; in the experiment on KM12 colon, 0.369 µM; in the experiment with MALME-3M melanoma it was 1.82 µM. Also, the GI50 was 1.78 µM with HOP-92 NSCLC, 0.359 µM in the experiment with UO-31 renal, 2.05 µM with SK-OV-3 ovarian and 1.27 µM with A549 NSCLC. In addition, the TGI stood at 6.13 µM in the experiment on SF-268 CNS; 4.39 µM in the experiment on NCI-H460 lung; 3.63 µM with UACC-257 melanoma; 1.5 µM in the experiment on KM12 colon; 5.98 µM in the experiment on MALME-3M melanoma; 6.08 µM in the experiment with HOP-92 NSCLC. In addition, the values for the TGI in the experiment on UO-31 renal, in the experiment on SK-OV-3 ovarian and in the experiment on A549 NSCLC were 1.61 µM, 5.6 µM and 3.73 µM, respectively.
